Assay results reported in US20210369684A1 (MOUNT TAM THERAPEUTICS, INC., priority 2018, published 2021).
pIC50: −log10 of the molar value. Several values for one entry are separate records, joined by “and”; a condition that tells them apart may be missing. Equal entries are not always repeated.

Tests used:
[1] = target: T1, TORC1 (Homo sapiens, UniProt P42345+P62942); assay: IC50 in PC3 cells, TORC1; type: cell-based
T1 construct: endogenous in cells; host or cells: PC3 cells

[2] = target: T2, TORC2 (Homo sapiens, UniProt P42345+P62942); assay: IC50 in PC3 cells, TORC2; type: cell-based
T2 construct: endogenous in cells; host or cells: PC3 cells

[3] = Oral bioavailability; conditions: in vivo
Source text: In order to measure bioavailability in vivo, a compound may be administered to a test animal (e.g. mouse or rat) both intraperitoneally (i.p.) or intravenously (i.v.) and orally (p.o.) and blood samples are taken at regular intervals to examine how the plasma concentration of the drug varies over time. The time course of plasma concentration over time can be used to calculate the absolute bioavailability of the compound as a percentage using standard models. An example of a typical protocol is described below. […] The time-course of plasma or whole blood concentrations can then be used to derive key parameters such as the area under the plasma or blood concentration-time curve (AUC-which is directly proportional to the total amount of unchanged drug that reaches the systemic circulation), the maximum (peak) plasma or blood drug concentration, the time at which maximum plasma or blood drug concentration occurs (peak time), additional factors which are used in the accurate determination of bioavailability include: the compound's terminal half-life, total body clearance, steady-state volume of distribution and F %. These parameters are then analyzed by non-compartmental or compartmental methods to give a calculated percentage bioavailability, for an example of this type of method see Gallant-[…] et al, 2000 and […] et al, 1998, and references therein.

[4] = Brain concentrations after IP administration to mice (LC-MS/MS); type: in vivo, mouse; conditions: for Formula II Concentrations in Mouse Brain / Formula II Concentrations in Mouse Brain, Mean: Day 3, 24.0 h
Method: To carry out these assays using brain homogenates, 20 uL of samples and matrix calibration standards into wells of a 96-well plate, and 10 uL of blank matrix allocated for matrix blanks and control blanks. 160 uL internal standard was then added to all samples except matrix blanks, and 160 uL ACN added to matrix blanks. Samples were then vortexed for 5 minutes and centrifuge for 5 minutes at >3500 rpm. 150 uL of the supernatant was then transferred to a new 96-well plate, and the plates blown down to dryness at 35° C., reconstituted with 90 uL of 70:30 water:acetonitrile (ACN) solution, covered and vortexed prior to analysis. LC and MS conditions were the same as described above for the whole blood analysis. […] The compound of Formula II was administered to mice at 2 mg/kg or 10 mg/kg for three days and the concentration of the compound in brain determined.

[5] = system: 6-OHDA injected mice; assay: 6-OHDA cylinder test (motor performance, contralateral touches); type: in vivo, mouse; conditions: 10 mg/kg, FIG. 2B
Method: An analysis of the neuroprotective effects of the compound of Formula II on motor performance was performed using the 6-OHDA cylinder test (FIG. 2A) which evaluates spontaneous motor changes associated with dopamine depletion in the striatum of 6-OHDA injected mice. […] Control mice were administered the vehicle control only. […] The data is presented in FIG. 2B as mean and standard error of the mean (SEM). Statistical analyses as compared to baseline mice were performed using the one-way Anova test (*: p<0.05; n.s.: not significant). […] Data is presented as mean and SEM. Statistical analyses were performed using One-way Anova test (*: p<0.05; ***: p<0.001. n.s.: not significant.)

[6] = system: 6-OHDA injected mice; assay: Anti-TH immunohistochemistry, 6-OHDA-induced striatal denervation; type: in vivo, mouse
Method: Immunohistochemistry analysis using anti-tyrosine hydroxylase (TH) antibody was performed in mouse midbrain sections to quantify 6-OHDA-induced striatal denervation in mice injected with 6-OHDA and non-injected (control) sides of the brain. […] In contrast, both the 6-OHDA/rapamycin-treated and the 6-OHDA/Formula II-treated sides of the brain show increased staining with the anti-TH antibody, as indicated by the dark shading in those figures. FIG. 3B presents the mean and standard error of the mean (SEM) of the integrated density of anti-TH antibody staining in the striatum, as well as statistical analysis of the results for the groups of mice.

[7] = system: 6-OHDA injected mice; assay: Anti-TH immunohistochemistry, 6-OHDA-induced neuronal loss (TH-positive somas in SN); type: in vivo, mouse
Method: Immunohistochemistry analysis using anti-tyrosine hydroxylase (TH) antibody was also performed to quantify 6-OHDA-induced neuronal loss in mice injected with 6-OHDA and non-injected (control) sides of the brain. […] FIG. 4B presents the mean and standard error of the mean (SEM) as well as statistical analysis of the results.

pIC50 [1]: 10.00
TORC1/TORC2 Selectivity ([1]; from IC50 values): 50x
pIC50 [2]: 8.30
bioavailability [3]: ~47%
Formula II Concentrations in Mouse Brain ([4]; Group 1, 2 mg/kg IP QD x 3 days, individual animals 7, 8, 9): 33.7 ng/g and 27.6 ng/g and 31.4 ng/g
Formula II Concentrations in Mouse Brain, Mean ([4]; Group 1, 2 mg/kg IP QD x 3 days): 30.9 ng/g
Formula II Concentrations in Mouse Brain ([4]; Group 2, 10 mg/kg IP QD x 3 days, individual animals 10, 11, 12): 121 ng/g and 136 ng/g and 224 ng/g
Formula II Concentrations in Mouse Brain, Mean ([4]; Group 2, 10 mg/kg IP QD x 3 days): 160 ng/g
Compound: CO[C@H]1C[C@@H]2CC[C@@H](C)[C@@](O)(C2)C(=O)C(=O)N2CCCC[C@H]2C(=O)O[C@H]([C@H](C)C[C@H]2C[C@H]3C[C@@H]2C[C@@H]3O)CC(=O)[C@H](C)/C=C(\C)[C@@H](O)[C@@H](OC)C(=O)[C@H](C)C[C@H](C)/C=C/C=C/C=C/1C [Formula II, C37-[(1R,2S,4R,5S)-5-hyhroxybicyclo[2.2.1]heptane] rapamycin]
concentrations in brain over time (in words) ([4]; 2 mg/kg or 10 mg/kg IP QD for three days, mice): sufficient concentrations in brain overtime
number of touches compared with rapamycin and vehicle control [5]: clearly outperformed rapamycin and the vehicle control
contralateral touches, difference from baseline (one-way Anova) ([5]; three days pre-treatment before 6-OHDA (80 μg)): non-significant difference from baseline
6-OHDA-induced striatal denervation (anti-TH staining) compared with rapamycin ([6]; 6-OHDA injected mice, FIG. 3A): decreased 6-OHDA-induced denervation as compared to rapamycin
6-OHDA-induced striatal denervation (anti-TH staining) compared with vehicle control ([6]; 6-OHDA injected mice, FIG. 3A): decreased 6-OHDA-induced denervation as compared to vehicle control
integrated density of anti-TH staining in striatum, p versus vehicle control ([6]; one-way ANOVA, FIG. 3B): < 0.001
6-OHDA-induced neuronal loss (TH-positive somas, SN) compared with vehicle control ([7]; 6-OHDA injected mice, FIG. 4A): decreased 6-OHDA-induced neuronal loss as compared to vehicle control
TH+ neuronal loss, p versus vehicle control ([7]; one-way ANOVA, FIG. 4B): < 0.01
